Assays:
Format in all cases: functional
Details in all cases: variant bovis BCG, 144 h, read-out: GI
[1] = test system: Mycobacterium tuberculosis; test: Growth inhibition of Mycobacterium bovis BCG at 200 ug/ml after 6 days by microplate alamar blue assay
[2] = test system: Mycobacterium tuberculosis; test: Growth inhibition of Mycobacterium bovis BCG at 1 ug/ml after 6 days by microplate alamar blue assay
[3] = test system: Mycobacterium tuberculosis; test: Growth inhibition of Mycobacterium bovis BCG at 0.5 ug/ml after 6 days by microplate alamar blue assay

SMILES | inhibition of growth at 200 µg/mL [1] [%] | other results
C#CCOc1cn([C@@H]2O[C@H](CO)[C@@H](O)[C@H]2F)c(=O)[nH]c1=O | 98 | 
C#CCOc1cn([C@@H]2O[C@H](CO)[C@@H](O)[C@H]2F)c(=O)n(CC#C)c1=O | 34 | 
NNC(=O)c1ccncc1 [ISONIAZID] |  | inhibition of growth at 1 µg/mL [2]: 100%
CO[C@H]1/C=C/O[C@@]2(C)Oc3c(C)c(O)c4c(O)c(c(/C=N/N5CCN(C)CC5)c(O)c4c3C2=O)NC(=O)/C(C)=C\C=C\[C@H](C)[C@H](O)[C@@H](C)[C@@H](O)[C@@H](C)[C@H](OC(C)=O)[C@@H]1C [RIFAMPIN] |  | inhibition of growth at 0.5 µg/mL [3]: 100%
